Reference: patent publication US9113629B2, “4-amino-6-(4-substituted-phenyl)-picolinates and 6-amino-2-(4-substituted-phenyl)-pyrimidine-4-carboxylates and their use as herbicides” (DOW AGROSCIENCES LLC, priority 2013, dated 2015)
Read-outs that look alike come from different tables or passages of the source.

How the values were obtained:
[1] = system: Key Broadleaf Weed and Crop Species; assay: Post-emergent Test II herbicidal activity (Table 5); assay type: in vivo; settings: post-emergence, 336 h, 14 days after application; for pest or weed control at 70 g/ha: application rate 70 g ai/ha; for pest or weed control at 140 g/ha: application rate 140 g ai/ha
How it was run: (§1)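 Greenhouse-grown plants at first or second true leaf stage were sprayed post-emergence with compound in acetone/DMSO-based aqueous spray containing crop oil concentrate and surfactant, at 187 L/ha, highest rate plus ½× to 1/16× dilutions. After 14 d, injury was scored visually versus untreated plants, 0 (none) to 100% (complete kill).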

[2] = system: Key Grass and Sedge Weeds as well as Grass Crops; assay: Post-emergent Test II herbicidal activity (Table 6); assay type: in vivo; settings: post-emergence, 336 h; for pest or weed control at 70 g/ha: 70 g ai/ha; for pest or weed control at 140 g/ha: 140 g ai/ha
How it was run: as §1

[3] = ABUTH: velvetleaf (Abutilon theophrasti), read-out: Visual Growth Reduction (%) 14 Days After Application, ABUTH
[4] = AMARE: redroot pigweed (Amaranthus retroflexus), read-out: Visual Growth Reduction (%) 14 Days After Application, AMARE
[5] = BRSNN: oilseed-rape, canola (Brassica napus), read-out: Visual Growth Reduction (%) 14 Days After Application, BRSNN
[6] = CHEAL: lambsquarters (Chenopodium album), read-out: Visual Growth Reduction (%) 14 Days After Application, CHEAL
[7] = EPHHL: wild poinsettia (Euphorbia heterophylla), read-out: Visual Growth Reduction (%) 14 Days After Application, EPHHL
[8] = HELAN: sunflower (Helianthus annuus), read-out: Visual Growth Reduction (%) 14 Days After Application, HELAN
[9] = VIOTR: wild pansy (Viola tricolor), read-out: Visual Growth Reduction (%) 14 Days After Application, VIOTR
[10] = CYPES: yellow nutsedge (Cyperus esculentus), read-out: Visual Growth Reduction (%) 14 Days After Application, CYPES
[11] = DIGSA: crabgrass (Digitaria sanguinalis), read-out: Visual Growth Reduction (%) 14 Days After Application, DIGSA
[12] = ECHCG: barnyardgrass (Echinochloa crus-galli), read-out: Visual Growth Reduction (%) 14 Days After Application, ECHCG
[13] = ORYSA: rice (Oryza sativa), crop, read-out: Visual Growth Reduction (%) 14 Days After Application, ORYSA
[14] = SORVU: grain sorghum (Sorghum vulgare), read-out: Visual Growth Reduction (%) 14 Days After Application, SORVU
[15] = TRZSS (wheat, Triticum aestivum), crop, read-out: Visual Growth Reduction (%) 14 Days After Application, TRZSS
[16] = ZEAMX: maize, corn (Zea mays), crop, read-out: Visual Growth Reduction (%) 14 Days After Application, ZEAMX

SMILES: COC(=O)c1nc(-c2ccc(Br)c(F)c2F)nc(N)c1OC [Compound 122, methyl 6-amino-2-(4-bromo-2,3-difluorophenyl)-5-methoxypyrimidine-4-carboxylate]
- pest or weed control at 70 g/ha [1, 3]: 95 to 100%
- pest or weed control at 140 g/ha [1, 3]: 95 to 100%
- pest or weed control at 70 g/ha [1, 4]: 95 to 100%
- pest or weed control at 140 g/ha [1, 4]: 95 to 100%
- pest or weed control at 70 g/ha [1, 5]: 95 to 100%
- pest or weed control at 140 g/ha [1, 5]: 95 to 100%
- pest or weed control at 70 g/ha [1, 6]: 95 to 100%
- pest or weed control at 140 g/ha [1, 6]: 95 to 100%
- pest or weed control at 70 g/ha [1, 7]: 95 to 100%
- pest or weed control at 140 g/ha [1, 7]: 95 to 100%
- pest or weed control at 70 g/ha [1, 8]: 85 to 94%
- pest or weed control at 140 g/ha [1, 8]: 95 to 100%
- pest or weed control at 70 g/ha [1, 9]: 95 to 100%
- pest or weed control at 140 g/ha [1, 9]: 85 to 94%
- pest or weed control at 70 g/ha [2, 10]: 95 to 100%
- pest or weed control at 140 g/ha [2, 10]: 95 to 100%
- pest or weed control at 70 g/ha [2, 11]: 45 to 59%
- pest or weed control at 140 g/ha [2, 11]: 45 to 59%
- pest or weed control at 70 g/ha [2, 12]: 85 to 94%
- pest or weed control at 140 g/ha [2, 12]: 95 to 100%
- pest or weed control at 70 g/ha [2, 13]: 0 to 29%
- pest or weed control at 140 g/ha [2, 13]: 0 to 29%
- pest or weed control at 140 g/ha ([2]; SETFA: giant foxtail (Setaria faberi), read-out: Visual Growth Reduction (%) 14 Days After Application, SETFA): 95 to 100%
- pest or weed control at 70 g/ha [2, 14]: 95 to 100%
- pest or weed control at 140 g/ha [2, 14]: 85 to 94%
- pest or weed control at 70 g/ha [2, 15]: 45 to 59%
- pest or weed control at 140 g/ha [2, 15]: 45 to 59%
- pest or weed control at 70 g/ha [2, 16]: 95 to 100%
- pest or weed control at 140 g/ha [2, 16]: 95 to 100%
- melting point: 171 to 172 °C
